The target in this series is ATP-dependent translocase ABCB1 (Homo sapiens, UniProt P08183). The experiment in a line: TP_TRANSPORTER: transepithelial transport of cyclosporin A in Caco-2 cells. The class given is functional, cell-based.
ATP-dependent translocase ABCB1, sequence (P08183 whole entry): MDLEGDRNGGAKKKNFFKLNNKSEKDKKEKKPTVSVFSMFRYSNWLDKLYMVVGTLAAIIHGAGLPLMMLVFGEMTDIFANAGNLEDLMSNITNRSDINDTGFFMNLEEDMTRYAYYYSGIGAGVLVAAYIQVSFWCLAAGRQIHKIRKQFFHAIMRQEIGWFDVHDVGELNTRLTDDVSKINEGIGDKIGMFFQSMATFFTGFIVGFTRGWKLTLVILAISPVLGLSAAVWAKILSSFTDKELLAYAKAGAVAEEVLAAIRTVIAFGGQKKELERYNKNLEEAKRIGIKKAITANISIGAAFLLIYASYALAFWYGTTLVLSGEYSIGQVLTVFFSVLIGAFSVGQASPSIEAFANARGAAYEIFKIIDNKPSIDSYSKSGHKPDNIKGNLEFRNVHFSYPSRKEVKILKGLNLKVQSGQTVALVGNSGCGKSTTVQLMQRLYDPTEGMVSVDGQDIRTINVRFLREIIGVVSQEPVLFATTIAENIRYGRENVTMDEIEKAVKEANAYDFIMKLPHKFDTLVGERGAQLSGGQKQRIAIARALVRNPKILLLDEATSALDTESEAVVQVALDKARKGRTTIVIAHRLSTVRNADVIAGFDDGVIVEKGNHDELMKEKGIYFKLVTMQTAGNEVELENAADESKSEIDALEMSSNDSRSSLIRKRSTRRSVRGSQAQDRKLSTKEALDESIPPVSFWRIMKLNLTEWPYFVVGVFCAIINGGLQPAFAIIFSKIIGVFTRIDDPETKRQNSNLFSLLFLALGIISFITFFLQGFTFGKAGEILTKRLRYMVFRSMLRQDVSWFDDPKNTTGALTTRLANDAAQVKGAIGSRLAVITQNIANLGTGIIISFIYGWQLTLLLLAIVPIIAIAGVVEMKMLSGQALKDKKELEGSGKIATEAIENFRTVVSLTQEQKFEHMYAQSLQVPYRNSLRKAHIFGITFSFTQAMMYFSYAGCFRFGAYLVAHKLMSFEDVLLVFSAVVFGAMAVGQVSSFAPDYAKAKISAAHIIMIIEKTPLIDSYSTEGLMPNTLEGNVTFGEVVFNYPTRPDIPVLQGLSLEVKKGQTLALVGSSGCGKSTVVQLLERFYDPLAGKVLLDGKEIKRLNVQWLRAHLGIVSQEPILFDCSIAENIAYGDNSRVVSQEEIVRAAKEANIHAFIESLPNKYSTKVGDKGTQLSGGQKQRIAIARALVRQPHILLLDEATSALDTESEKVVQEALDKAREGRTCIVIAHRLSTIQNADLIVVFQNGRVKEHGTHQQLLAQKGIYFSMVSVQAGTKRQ

For CREMOPHOR EL, the Activity entry was “inhibitor [+]”.
Next, PLURONIC L81: “inhibitor [+]”.

The values above are taken from ChEMBL document CHEMBL2074215, “The effects of pluronics block copolymers and Cremophor EL on intestinal lipoprotein processing and the potential link with P-glycoprotein in Caco-2 cells” (Pharm Res, 2003).
